The experiment concerns the target T1, full-length ERα (estrogen binding site) (Homo sapiens, UniProt P03372).
T1 construct: in the presence of 25 nM full-length ERα and 4.5 nM flourescein-E2; purchased Life Technologies P2698
T1 sequence (P03372 1-595): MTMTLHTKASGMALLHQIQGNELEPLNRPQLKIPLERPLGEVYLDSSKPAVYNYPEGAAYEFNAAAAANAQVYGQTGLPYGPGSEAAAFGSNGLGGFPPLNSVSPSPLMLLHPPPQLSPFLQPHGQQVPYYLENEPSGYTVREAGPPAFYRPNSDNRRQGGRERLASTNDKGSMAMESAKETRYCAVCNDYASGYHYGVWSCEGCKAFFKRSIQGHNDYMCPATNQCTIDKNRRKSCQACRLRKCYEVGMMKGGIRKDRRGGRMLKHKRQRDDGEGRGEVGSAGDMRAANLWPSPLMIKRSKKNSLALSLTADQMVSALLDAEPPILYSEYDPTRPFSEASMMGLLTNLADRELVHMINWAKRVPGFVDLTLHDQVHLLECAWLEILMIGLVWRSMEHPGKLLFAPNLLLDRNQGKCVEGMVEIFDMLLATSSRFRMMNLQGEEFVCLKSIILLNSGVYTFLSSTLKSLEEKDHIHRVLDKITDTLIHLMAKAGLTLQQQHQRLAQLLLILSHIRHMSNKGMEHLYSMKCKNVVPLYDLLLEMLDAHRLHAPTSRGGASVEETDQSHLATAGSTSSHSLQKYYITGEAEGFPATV
Kind of experiment: E2 displacement fluorescence polarization assay (PolarScreen ERα Competitor Green). To be noted: highest concentration 6 µM, compared to positive control E2. How it is done: It should be noted that selective estrogen receptor modulators (SERMs) such as tamoxifen displace co-activator protein from AF2 allosterically, i.e., by binding to the estrogen binding site (EBS). To ascertain whether VPC-16606 is not an EBS binder, 17 β-estradiol (E2) displacement was assessed with the Polar Screen Estrogen Receptor-α Competitor Green Assay Kit (P2698, Life Technologies, Carlsbad, CA, USA).
E2 displacement was assessed with the PolarScreen ERα Competitor Assay Green kit (P2698; LifeTechnologies) as per the instructions of the manufacturer. Briefly, 50 µL of assay buffer containing VPC-16606 were added to a 50-μL mixture containing 2× full-length ERα and flourescein-E2 in each well of a […] black plate to obtain final concentrations of 0.2–6.3 μM of the test compound in the presence of 25 nM full-length ERα and 4.5 nM flourescein-E2. After 2 h, polarisation was measured on a Tecan F500 microplate reader.
On the technique in general: Fluorescence polarisation rises when a labelled molecule tumbles more slowly, as on binding a larger partner.

Molecules are shown by their SMILES.

As for `CC(=O)N(/N=C1\Sc2c(C)cccc2C1=O)c1ccccc1Cl` [VPC-16606], the “Displacement of fluorescein labelled E2 (FL-E2) from the EBS” value was “minimal displacement”.

These data come from article PMC5855801, “Benzothiophenone Derivatives Targeting Mutant Forms of Estrogen Receptor-α in Hormone-Resistant Breast Cancers” (International Journal of Molecular Sciences, 2018).
